# Source: patent US9040545B2, “Heterocyclyl pyrazolopyrimidine analogues as selective JAK inhibitors” (Cellzome Limited, priority 2010, dated 2015)
# Target: T1, Aurora B (Homo sapiens, UniProt Q96GD4)
# T1 construct: cell lysates from Jurkat cells (ATCC TIB-152) used; endogenous in cells; host or cells: Jurkat cells (ATCC TIB-152), treated with pervanadate
# Experiment: Kinobeads assay, Aurora B
# Type: binding
# Details: for IC50: lysate of pervanadate-treated Jurkat cells, read-out: Inhibition values (IC50) Aur B
# T1 sequence (Q96GD4 whole entry): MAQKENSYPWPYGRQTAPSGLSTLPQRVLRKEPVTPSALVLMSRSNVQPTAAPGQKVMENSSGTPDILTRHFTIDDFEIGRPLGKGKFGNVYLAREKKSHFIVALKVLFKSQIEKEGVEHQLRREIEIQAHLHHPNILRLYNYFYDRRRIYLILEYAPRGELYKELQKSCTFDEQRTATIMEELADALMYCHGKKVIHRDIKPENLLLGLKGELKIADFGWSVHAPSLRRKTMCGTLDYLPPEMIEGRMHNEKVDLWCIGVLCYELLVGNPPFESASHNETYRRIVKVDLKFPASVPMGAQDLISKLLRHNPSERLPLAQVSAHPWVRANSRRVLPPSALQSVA
Structure (SMILES),JAK3/AurB Fold Selectivity,IC50 [nM]
"Cn1cc(Nc2ncc3cnn(Cc4cccc(N5CCC6(COC6)C5)c4)c3n2)cn1 [Example 104, 1-(3-(2-oxa-6-azaspiro[3.4]octan-6-yl)benzyl)-N-(1-methyl-1H-pyrazol-4-yl)-1H-pyrazolo[3,4-d]pyrimidin-6-amine]",10-50 Fold,1000 to 10000
"O=C1CC(Cn2cc(Nc3ncc4cnn(Cc5cc(F)cc(N6CCOCC6=O)c5)c4n3)cn2)CN1 (stereo not drawn) [Example 105, 4-(3-fluoro-5-((6-((1-((5-oxopyrrolidin-3-yl)methyl)-1H-pyrazol-4-yl)amino)-1H-pyrazolo[3,4-d]pyrimidin-1-yl)methyl)phenyl)morpholin-3-one]",>50 Fold,100 to 1000
"O=C1COCCN1c1cc(F)cc(Cn2ncc3cnc(Nc4cnn(CCS(=O)(=O)NC5CC5)c4)nc32)c1 [Example 106, N-cyclopropyl-2-(4-((1-(3-fluoro-5-(3-oxomorpholino)benzyl)-1H-pyrazolo[3,4-d]pyrimidin-6-yl)amino)-1H-pyrazol-1-yl)ethanesulfonamide]",10-50 Fold,100 to 1000
"N#CCCn1cc(Nc2ncc3cnn(Cc4cc(F)cc(N5CCOCC5=O)c4)c3n2)cn1 [Example 107, 3-(4-((1-(3-fluoro-5-(3-oxomorpholino)benzyl)-1H-pyrazolo[3,4-d]pyrimidin-6-yl)amino)-1H-pyrazol-1-yl)propanenitrile]",10-50 Fold,100 to 1000
"Cn1cc(Nc2ncc3cnn(Cc4cccc(N5CCC(=O)CC5)c4)c3n2)cn1 [Example 108, 1-(3-((6-((1-methyl-1H-pyrazol-4-yl)amino)-1H-pyrazolo[3,4-d]pyrimidin-1-yl)methyl)phenyl)piperidin-4-one]",10-50 Fold,1000 to 10000
"O=C(Cn1cc(Nc2ncc3cnn(Cc4cc(F)cc(N5CCOCC5=O)c4)c3n2)cn1)N1CCNCC1 [Example 109, 4-(3-fluoro-5-((6-((1-(2-oxo-2-(piperazin-1-yl)ethyl)-1H-pyrazol-4-yl)amino)-1H-pyrazolo[3,4-d]pyrimidin-1-yl)methyl)phenyl)morpholin-3-one]",10-50 Fold,100 to 1000
"Cn1cc(Nc2ncc3cnn(Cc4c(F)c(F)cc(C(=O)N5CCOCC5)c4F)c3n2)cn1 [Example 110, morpholino(2,4,5-trifluoro-3-((6-((1-methyl-1H-pyrazol-4-yl)amino)-1H-pyrazolo[3,4-d]pyrimidin-1-yl)methyl)phenyl)methanone]",3-10 Fold,100 to 1000
"O=C(c1cc(F)c(F)c(Cn2ncc3cnc(Nc4cnn(CCO)c4)nc32)c1F)N1CCOCC1 [Example 111, morpholino(2,4,5-trifluoro-3-((6-((1-(2-hydroxyethyl)-1H-pyrazol-4-yl)amino)-1H-pyrazolo[3,4-d]pyrimidin-1-yl)methyl)phenyl)methanone]",10-50 Fold,100 to 1000
"C[C@H]1COCCN1c1cccc(Cn2ncc3cnc(Nc4cnn(C)c4)nc32)c1 [Example 112, (S)-N-(1-methyl-1H-pyrazol-4-yl)-1-(3-(3-methylmorpholino)benzyl)-1H-pyrazolo[3,4-d]pyrimidin-6-amine]",>50 Fold,1000 to 10000
"C[C@@H]1COCCN1c1cccc(Cn2ncc3cnc(Nc4cnn(C)c4)nc32)c1 [Example 113, (R)-N-(1-methyl-1H-pyrazol-4-yl)-1-(3-(3-methylmorpholino)benzyl)-1H-pyrazolo[3,4-d]pyrimidin-6-amine]",>50 Fold,1000 to 10000
"Cn1cc(Nc2ncc3cnn(Cc4cccc(NC5COC5)c4)c3n2)cn1 [Example 114, N-(1-methyl-1H-pyrazol-4-yl)-1-(3-(oxetan-3-ylamino)benzyl)-1H-pyrazolo[3,4-d]pyrimidin-6-amine]",10-50 Fold,100 to 1000
"Cn1cc(Nc2ncc3cnn(Cc4cccc(-c5cnn(C)c5)c4)c3n2)cn1 [Example 115, N-(1-methyl-1H-pyrazol-4-yl)-1-(3-(1-methyl-1H-pyrazol-4-yl)benzyl)-1H-pyrazolo[3,4-d]pyrimidin-6-amine]",>50 Fold,1000 to 10000
"CCn1cc(-c2cccc(Cn3ncc4cnc(Nc5cnn(C)c5)nc43)c2)cn1 [Example 116, 1-(3-(1-ethyl-1H-pyrazol-4-yl)benzyl)-N-(1-methyl-1H-pyrazol-4-yl)-1H-pyrazolo[3,4-d]pyrimidin-6-amine]",>50 Fold,1000 to 10000
"CC(C)n1cc(-c2cccc(Cn3ncc4cnc(Nc5cnn(C)c5)nc43)c2)cn1 [Example 117, 1-(3-(1-isopropyl-1H-pyrazol-4-yl)benzyl)-N-(1-methyl-1H-pyrazol-4-yl)-1H-pyrazolo[3,4-d]pyrimidin-6-amine]",>50 Fold,≥ 10000
"Cn1cc(Nc2ncc3cnn(Cc4cccc(-c5cn[nH]c5)c4)c3n2)cn1 [Example 118, 1-(3-(1H-pyrazol-4-yl)benzyl)-N-(1-methyl-1H-pyrazol-4-yl)-1H-pyrazolo[3,4-d]pyrimidin-6-amine]",10-50 Fold,1000 to 10000
"CCCn1cc(-c2cccc(Cn3ncc4cnc(Nc5cnn(C)c5)nc43)c2)cn1 [Example 119, N-(1-methyl-1H-pyrazol-4-yl)-1-(3-(1-propyl-1H-pyrazol-4-yl)benzyl)-1H-pyrazolo[3,4-d]pyrimidin-6-amine]",>50 Fold,1000 to 10000
"Cn1cc(Nc2ncc3cnn(Cc4cccc(-c5cnn(CC(N)=O)c5)c4)c3n2)cn1 [Example 120, 2-(4-(3-((6-((1-methyl-1H-pyrazol-4-yl)amino)-1H-pyrazolo[3,4-d]pyrimidin-1-yl)methyl)phenyl)-1H-pyrazol-1-yl)acetamide]",>50 Fold,1000 to 10000
"Cn1cc(Nc2ncc3cnn(Cc4cccc(-c5cnn(CCO)c5)c4)c3n2)cn1 [Example 121, 2-(4-(3-((6-((1-methyl-1H-pyrazol-4-yl)amino)-1H-pyrazolo[3,4-d]pyrimidin-1-yl)methyl)phenyl)-1H-pyrazol-1-yl)ethanol]",10-50 Fold,1000 to 10000
"Cn1cc(-c2cccc(Cn3ncc4cnc(Nc5cnn(CCO)c5)nc43)c2)cn1 [Example 122, 2-(4-((1-(3-(1-methyl-1H-pyrazol-4-yl)benzyl)-1H-pyrazolo[3,4-d]pyrimidin-6-yl)amino)-1H-pyrazol-1-yl)ethanol]",>50 Fold,100 to 1000
"Cn1cc(Nc2ncc3cnn(Cc4cccc(-c5cnn(C)c5)c4F)c3n2)cn1 [Example 123, 1-(2-fluoro-3-(1-methyl-1H-pyrazol-4-yl)benzyl)-N-(1-methyl-1H-pyrazol-4-yl)-1H-pyrazolo[3,4-d]pyrimidin-6-amine]",>50 Fold,1000 to 10000
"Cn1cc(-c2cccc(Cn3ncc4cnc(Nc5cnn(CCO)c5)nc43)c2F)cn1 [Example 124, 2-(4-((1-(2-fluoro-3-(1-methyl-1H-pyrazol-4-yl)benzyl)-1H-pyrazolo[3,4-d]pyrimidin-6-yl)amino)-1H-pyrazol-1-yl)ethanol]",10-50 Fold,100 to 1000
"Cn1cc(Nc2ncc3cnn(Cc4cc(F)cc(-c5cnn(C)c5)c4)c3n2)cn1 [Example 125, 1-(3-fluoro-5-(1-methyl-1H-pyrazol-4-yl)benzyl)-N-(1-methyl-1H-pyrazol-4-yl)-1H-pyrazolo[3,4-d]pyrimidin-6-amine]",>50 Fold,1000 to 10000
"Cn1cc(Nc2ncc3cnn(Cc4cc(-c5cnn(C)c5)cc(F)c4F)c3n2)cn1 [Example 126, 1-(2,3-difluoro-5-(1-methyl-1H-pyrazol-4-yl)benzyl)-N-(1-methyl-1H-pyrazol-4-yl)-1H-pyrazolo[3,4-d]pyrimidin-6-amine]",>50 Fold,≥ 10000
"Cn1cc(-c2cc(F)c(F)c(Cn3ncc4cnc(Nc5cnn(CCO)c5)nc43)c2)cn1 [Example 127, 2-(4-((1-(2,3-difluoro-5-(1-methyl-1H-pyrazol-4-yl)benzyl)-1H-pyrazolo[3,4-d]pyrimidin-6-yl)amino)-1H-pyrazol-1-yl)ethanol]",10-50 Fold,100 to 1000
